“Also recorded” adds a separate entry of the source.
How the values were obtained:
[1] = tested on: PMA stimulated THP1 cells; test: Inhibition of lipoprotein (Cy3-oxLDL) uptake / lipid vesicle accumulation in macrophage foam cells; assay type: cell-based; details: PMA-differentiated THP1 cells, 2 hours with cy3 labeled oxLDL (1 µg/ml), fluorescence microscopy
Protocol: The THP-1 cell line from the European Collection of Cell Cultures, (ECACC, Wilshire, UK) were selected to generate a cellular model that mimics the differentiation and the growth of a foam cell. Typically, the cells (5.10^5 cells/ml) were maintained and grown in RPMI-1640, 10% FBS, 100 Unit/ml penicillin and 100 µg/ml streptomycin, […] L-Glutamine (Biowhittaker, Verviers , Belgium) in 37°C, 5% CO2 incubator. Medium was replaced every 2-3 days.
Human LDL were isolated from fresh plasma using a two steps KBr gradient ultracentrifugation (Leger et al., Free Rad. Res., 2002, 36, 127-142), LDL were dialyzed against NaCl 150 mM, sodium phosphate 10 mM, DTPA 10 µM (pH 7,4) for 24 hours. […]
Finally, lipoproteins were also characterized by their electrophoretic mobility. […] At the end of the labeling procedure, Cy3-OxLDL was extensively dialyzed and labeling efficiency was evaluated by measuring the absorbance at 548 nm.
To induce differentiation into macrophages, 1.5 10^5 cells/wells were plated in 96-well plates in culture medium supplemented with 10^-7 M of phorbol 12-myristate-13-acetate (Sigma) for 24 hours at 37°C, 5% CO2. […] After 2 washes with PBS, images of Cy-3 oxLDL uptake were captured using a fluorescence microscope coupled with a CCD camera. Each image was analyzed and quantified using QFluoro Software (Leica).

[2] = tested on: thromboxane A2; details: described in EP 0 623 019; cited from earlier work

## CC/C=C\C/C=C\C/C=C\C/C=C\C/C=C\C/C=C\CCC(=O)O[C@H](CO)COP(=O)([O-])OCC[N+](C)(C)C [lyso-PCDHA, 1-lyso, 2-DHA-glycero-phosphocholine]
[1]
  accumulation of lipid vesicles in macrophage / formation of foam cells: can block the accumulation of lipid rich vesicles in macrophage and prevent the formation of foam cell; also recorded: Dose dependent effect for the inhibition of lipid vesicles in macrophage cells; also recorded: can inhibit the accumulation of lipid vesicles in macrophage and block the formation of foam cells
[2]
  platelet aggregation inhibition: platelet aggregation inhibitors

— patent EP1466597A1, “Use of dha esters to control or prevent cardiovascular diseases” (Clinigenetics, priority 2003, dated 2004)
